Reference: PubChem BioAssay AID2305 (GlaxoSmithKline (GSK), 2010)
Where “and” joins values, the source holds several entries; their conditions need not be identical. Equal entries are not always repeated.

The compounds below were run on P. falciparum 3D7 growth, pLDH absorbance (assay: P. falciparum 3D7 growth inhibition, dose response, strain 3D7 (AID 2305)).

Row | Compound | IC50
1 | Cc1cc(NC(=O)N=C(N)N)ccc1Cl | 700 nM
2 | CC(C)N1CCN(C(=O)c2ccc(CNCCCN3CCN(c4ccccc4C(F)(F)F)CC3)s2)CC1 | 840 nM
3 | COc1ccc(C(O)CNC(C)CCc2ccccc2)cc1C(F)(F)F (stereo not given) | 70 nM
4 | COc1ccc2nccc([C@@H](O)CN3CCC(NC(=O)C(=Cc4ccc(Cl)cc4Cl)c4ccc(-c5ccccc5)cc4)CC3)c2c1 | 990 nM
5 | CC(=O)Nc1ncc(C(=O)Nc2cccc(-c3ccc(-c4nc5ccc(C(F)(F)F)cc5[nH]4)cc3)c2)s1 | 590 nM
6 | COC(C(=O)OCCC1CCCN1C)(c1ccccc1)c1ccccc1 (stereo not given) | 970 nM
7 | CCOC(=O)c1cccc(NC(=O)Nc2cc(C)nc3ccccc23)c1 | 290 nM
8 | O=C(NCCCN1CCCCC1)c1ccc(Nc2nccc(Nc3ccc(Oc4ccccc4)cc3)n2)cc1 | 630 nM
9 | CC(=O)Nc1cccc(C(=O)Nc2ccc(-c3cccc(-c4nc5ccc(F)cc5[nH]4)c3)cc2)c1 | 630 nM
10 | Cn1cncc1C(=O)Nc1cccc(-c2ccc(-c3nc4ccccc4[nH]3)s2)c1 | 800 nM
11 | FC(F)(F)c1ccc2nc(-c3ccc(-c4cccc(CNCCN5CCNCC5)c4)cc3)[nH]c2c1 | 1030 nM
12 | Cc1ccc2nc(-c3cc(-c4cccc(C#N)c4)cnc3N)[nH]c2c1 | 120 nM
13 | Cc1[nH]c(C)c(-c2ccc(C(=O)c3ccc(Cl)cc3)cc2)c(=O)c1Cl | 530 nM
14 | Cc1[nH]c2ccccc2c(=O)c1Br | 840 nM
15 | CC1=C(C(=O)OC(C)C)C(c2ccccc2Cl)C2=C(CC(c3ccccc3)CC2=O)N1 (stereo not given) | 850 nM
16 | CCC(ON1C(N)=NC(N)=NC1(C)C)c1ccccc1 (stereo not given) | 30 nM
17 | Cc1cc(CNCCCCCCNCc2ccc(Cl)cc2)ccc1O | 820 nM
18 | COc1cc(NC(=O)/C=C/c2cccc3cc[nH]c23)ccc1OCCN(C(C)C)C(C)C | 270 nM
19 | Cn1cncc1C(=O)Nc1cccc(-c2ccc(-c3nc4ccccc4[nH]3)cc2)c1 | 850 nM
20 | CCN(CC)CCN(Cc1ccc(-c2ccc(C(F)(F)F)cc2)cc1)C(=O)Cn1c(CCc2ccc(F)cc2)nc(=O)c2ccccc21 | 1070 nM
21 | O=S(=O)(Nc1cccc(CCN2CCCCC2CCN2CCCC2)c1)c1ccc2ccccc2c1 (stereo not given) | 1070 nM
22 | NC(=O)c1cccc(C(=O)Nc2ccc(-c3cccc(-c4nc5ccc(F)cc5[nH]4)c3)cc2)c1 | 870 nM
23 | Cc1nc(-c2nc(NCCc3c(C)noc3C)ncc2-c2ccsc2)sc1C | 260 nM
24 | COc1ccc(-c2cccc(NC(=O)c3cccc(Cl)c3)c2)cc1CN1CCNCC1 | 800 nM

Row | Compound | IC50
25 | CS(=O)(=O)c1cccc(-c2cnc(N)c3cc(-c4ccc(F)cc4)ccc23)c1 | 900 nM
26 | CC(=O)Nc1ccc(C(=O)N2CCN(c3ccnc4cc(Cl)ccc34)CC2)cc1 | 910 nM
27 | Cc1cc(NC(=O)c2cccs2)ccc1OC1CCN(Cc2ccc(F)cc2)C1 (stereo not given) | 670 nM
28 | CCN1CCC(N(Cc2ccc(-c3ccc(C(F)(F)F)cc3)cc2)C(=O)Cn2c(CCc3cccc(F)c3F)cc(=O)c3ccccc32)CC1 | 830 nM
29 | Cc1cc(Nc2ccccc2)nc(Nc2ccccc2)n1 | 800 nM
30 | CC(C)C1=CC(=NOS(=O)(=O)c2ccccc2)C=C(C(C)C)C1=O | 710 nM
31 | CC(C)c1ccc(Nc2nc(NCCc3cnc[nH]3)nc(NCc3ccccc3)n2)cc1 | 690 nM
32 | Cc1[nH]c(C)c(-c2ccc(OCc3cc(F)cc(F)c3)nc2)c(=O)c1Br | 100 nM
33 | O=S(=O)(NCCN1CCCC1)c1ccc(-c2cccc(CNCCc3cccs3)c2)cc1 | 930 nM
34 | COc1ccc(Nc2ncc3c(-c4cccc(NC(=O)Cc5ccc(F)cc5)c4)c[nH]c3n2)cc1OC | 590 nM
35 | Cc1ccc(CNC(=O)c2cc3c(=O)n4ccccc4nc3n(CCCN3CCOCC3)c2=N)cc1 | 1090 nM
36 | Cc1nc(NC2=NCN(CCCN3CCOCC3)CN2)nc2c(C)cccc12 | 1130 nM
37 | NCCC(=O)Nc1ccc(-c2cnc3[nH]cc(-c4ccc(C(=O)O)cc4)c3c2)cn1 | 840 nM
38 | O=c1[nH]c2ccc3[nH]cccc3c2c1C=Nc1ccc(Cn2ccnc2)cc1 | 660 nM
39 | COc1cccc(CNC[C@@H](O)[C@H](Cc2ccccc2)NC(=O)c2cc(OC(C)C)cc(N3CCCCS3(=O)=O)c2)c1 | 730 nM
40 | COC(=O)c1sccc1NC(=S)NC1CCC(CN2CCC(c3c[nH]c4ccccc34)CC2)CC1 (stereo not given) | 920 nM and 570 nM
41 | CC(C)CNCc1ccc(-c2ccc(CN(C(=O)NCCc3ccccc3)C3CCN(Cc4ccccc4)CC3)cc2)cc1 | 700 nM
42 | COc1c(C2CCN(CCCCNC(=O)C=Cc3cc4cc(Cl)ccc4o3)CC2)ccc2c1CCCC2 | 1310 nM
43 | CCOc1ccc(-c2nonc2NC(=O)c2ccco2)cc1OCC | 750 nM
44 | COc1ccc(Nc2nccc(N3CCC(NC(=O)c4cccc(C#N)c4)C3)n2)cc1 (stereo not given) | 820 nM
45 | CC1CCN(c2nc(C(=O)Nc3ccc(F)cc3C(F)(F)F)c(C(C)C)s2)CC1 | 230 nM
46 | CC(CN(C)C)C(=O)Nc1ccc(-c2ccc(-c3nc4ccccc4[nH]3)cc2)cc1 (stereo not given) | 740 nM
47 | COc1cc(NC(=O)CCCCCCCN2CCN(C)CC2)c2ncccc2c1 | 610 nM
48 | COc1ccc2ccccc2c1C=NNc1ccnc2cc(Cl)ccc12 | 610 nM

Row | Compound | IC50
49 | CS(=O)(=O)c1ccc(CCNCc2ccc(-c3ccc(CNC4CCN(Cc5ccccc5)CC4)cc3)nc2)cc1 | 250 nM
50 | CN(C)CCC1CCN(CCS(=O)(=O)c2cccc(Nc3ncc(-c4cccc(F)c4)cn3)c2)CC1 | 1060 nM
51 | COc1ccc(CNCc2cccc(-c3cccc(-c4nc5c(C)cccc5[nH]4)c3)c2)cc1 | 130 nM
52 | CCCc1ccc(NC(=O)c2cccc(CN3CCCN(Cc4cccc(O)c4)CC3)c2)cc1 | 750 nM
53 | O=C(Nc1ccc(N2CCCN(Cc3cccc(F)c3)CC2)cc1)c1cccs1 | 550 nM
54 | O=C(C1CCN(C(c2ccccc2)c2ccc(Cl)c(Cl)c2)CC1)N1CC=CC1 (stereo not given) | 720 nM
55 | CN1CCN(CC(=O)Nc2cccc(-c3ccc(-c4nc5ccc(C(F)(F)F)cc5[nH]4)s3)c2)CC1 | 310 nM
56 | Cc1csc(-c2nc(NCc3cccnc3)ncc2-c2ccsc2)n1 | 1190 nM
57 | CN(CCCc1c[nH]c2ccccc12)CC1CCN(C(=O)/C=C/c2ccc(Cl)c(Cl)c2)CC1 | 750 nM
58 | COc1cc(NC(=O)c2sc(-c3ccc(Cl)cc3)cc2NC(=O)c2ccncc2)ccc1OCCN1CCCC1 | 30 nM
59 | Oc1ccc(OCc2ccccn2)cc1 | 980 nM
60 | CCc1sc(CN(CCCNc2cc(=O)c3ccccc3[nH]2)Cc2sc(CC)c(Br)c2-c2ccsc2)c(-c2ccsc2)c1Br | 90 nM
61 | O=C(NC1CC1)c1ccc(Cn2c(SCc3cccc(Cl)c3)nc3ccccc3c2=O)cc1 | 420 nM
62 | O=C(Nc1cccc(CN2CCCN(Cc3ccc(O)cc3)CC2)c1)c1ccc2ccccc2c1 | 370 nM
63 | COc1ccc(CCn2c(=N)c(C(=O)NCc3ccccc3)cc3c(=O)n4ccccc4nc32)cc1 | 750 nM
64 | O=C(NCCCCN1CCC(c2ccc3c(c2OCCO)CCCC3)CC1)c1ccc2oc(-c3ccc(C(F)(F)F)cc3)cc2c1 | 340 nM
65 | CC(=O)Nc1cccc(CN(Cc2ccc(-c3ccc(CNCc4cccnc4)cn3)cc2)C(=O)Cc2cccnc2)c1 | 820 nM
66 | CCN(CCNC(=O)Cn1c(C)cc2cc([N+](=O)[O-])ccc21)c1cccc(C)c1 | 1010 nM
67 | CN(C)CCCOc1ccc(CN2CC[C@H](NC(=O)c3ccc(Cl)c(Cl)c3)C2)cc1Br | 760 nM
68 | Cc1nnsc1C(=O)Nc1cccc(-c2cccc(-c3nc4c(C)cccc4[nH]3)c2)c1 | 270 nM
69 | CC(C)N1CCC(N(Cc2ccc(-c3ccc(C(F)(F)F)cc3)cc2)C(=O)Cn2c(SCc3cccc(F)c3F)cc(=O)c3ccccc32)CC1 | 820 nM
70 | COc1nc(-n2ccc(=N)cc2)nc2ccccc12 | 1060 nM
